Here are results for 18 compounds from patent US20220363686A1 (AiCuris GmbH & Co. KG, priority 2018, published 2022).

One data set has as its system HBV. Kind of data set: Determination of HBV DNA from the supernatants of HepAD38 cells (anti-HBV activity). The class given is cell-based, hepatitis B virus. As to conditions: Hepatitis B virus, HePAD38, 144 h, HBV DNA in HepAD38 supernatant, day 6, qPCR, read-out: Cell Activity. The gist of the method:
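HepAD38 cells (60,000/well) seeded in tetracycline-free medium to induce HBV, treated with half-log serial compound dilutions for 6 days at 37 °C. HBV DNA purified from filtered supernatant and quantified by real-time PCR against HBV plasmid standards; EC50 from relative copy numbers by non-linear regression.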

A short description of data set [1]: Cell viability assay (AlamarBlue). As to conditions: human, HepAD38 cells.
Protocol: Using the AlamarBlue viability assay cytotoxicity was evaluated in HepAD38 cells in the presence of 0.3 μg/ml tetracycline, which blocks the expression of the HBV genome. Assay condition and plate layout were in analogy to the anti-HBV assay, however other controls were used. On each assay plate six wells containing untreated HepAD38 cells were used as the 100% viability control, and six wells filled with assay medium only were used as 0% viability control. In addition, a geometric concentration series of cycloheximide starting at 60 μM final assay concentration was used as positive control in each experiment. After six days incubation period Alamar Blue Presto cell viability reagent (ThermoFisher, Dreieich) was added in 1/11 dilution to each well of the assay plate. After an incubation for 30 to 45 min at 37° C. the fluorescence signal, which is proportional to the number of living cells, was read using a Tecan Spectrafluor Plus plate reader with an excitation filter 550 nm and emission filter 595 nm, respectively. Data were normalized into percentages of the untreated control (100% viability) and assay medium (0% viability) before CC50 values were calculated using non-linear regression and the GraphPad Prism 6.0 (GraphPad Software, La Jolla, USA). Mean EC50 and CC50 values were used to calculate the selectivity index (SI=CC50/EC50) for each test compound.
The target of data set [2] is HBV core protein (C-terminal truncated core protein containing 149 amino acids of the N-terminal assembly domain) (UniProt P03146). Put plainly: Biochemical capsid assembly assay (fluorescence quenching). Details: rows headed: Assembly Activity; other: BODIPY-FL labelled core protein, assembly started with NaCl, read after 6 min. The following applies: read-out: Assembly Activity; BODIPY-FL labelled core protein, assembly started with NaCl, read after 6 min. The gist of the method: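 N-terminal assembly domain (residues 1–149) plus C-terminal Cys150, E. coli-expressed, BODIPY-FL-maleimide labelled, used at 1.0–2.0 μM in 50 mM HEPES pH 7.5 with 0.5% DMSO. Assembly started with NaCl ([…]); fluorescence quenching (ex 477/em 525 nm) read after 6 min. 8-point compound series; EC50 by non-linear regression.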

The term CC50 denotes the concentration giving 50% cytotoxicity. Higher therefore signals better tolerance by the cells.

Like-named read-outs stand apart in the source and are kept apart here.

Sequence of HBV core protein (C-terminal truncated core protein containing 149 amino acids of the N-terminal assembly domain) (P03146 whole entry, the tested form may be a part): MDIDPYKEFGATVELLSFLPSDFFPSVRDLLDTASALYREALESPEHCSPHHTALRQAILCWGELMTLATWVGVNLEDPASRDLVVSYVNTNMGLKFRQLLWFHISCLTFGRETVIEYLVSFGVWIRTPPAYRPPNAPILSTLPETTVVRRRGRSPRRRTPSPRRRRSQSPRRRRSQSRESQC

Regarding `CC(C)OCC1(N(C)C(=O)c2cnn3c2CN(C(=O)c2cc4ccccc4[nH]2)CC3)CC1` [Example 11, 5-(1H-indole-2-carbonyl)-N-methyl-N-{1-[(propan-2-yloxy)methyl]cyclopropyl}-4H,5H,6H,7H-pyrazolo[1,5-a]pyrazine-3-carboxamide], the EC50 with HBV was less than 1 µM. In data set [1], this compound displayed a CC50 at 6 days greater than 10 µM. Moreover, the IC50 in data set [2] was less than 5 µM.
Turning to `O=C(c1cc2ccccc2[nH]1)N1CCn2ncc(C3(O)CC(c4ccccc4)C3)c2C1` (stereo not drawn) [Example 51, 1-[5-(1H-indole-2-carbonyl)-4H,5H,6H,7H-pyrazolo[1,5-a]pyrazin-3-yl]-3-phenylcyclobutan-1-ol], the EC50 in the data set with HBV is 1 to 10 µM. In addition, in data set [1], the CC50 at 6 days is greater than 10 µM. In data set [2], the IC50 is 5 to 10 µM.
The matching figures for `COCC1(N(C)C(=O)c2cnn3c2CN(C(=O)c2cc4c(F)cc(F)cc4[nH]2)CC3)CC1` [Example 8, 5-(4,6-difluoro-1H-indole-2-carbonyl)-N-[1-(methoxymethyl)cyclopropyl]-N-methyl-4H,5H,6H,7H-pyrazolo[1,5-a]pyrazine-3-carboxamide]: less than 1 µM, greater than 10 µM and less than 5 µM.
For `CC1Cn2ncc(C(=O)N[C@H](C)C(F)(F)F)c2CN1C(=O)c1cc2c(Cl)cccc2[nH]1` (stereo partly drawn) [Example 145, 5-(4-chloro-1H-indole-2-carbonyl)-6-methyl-N-[(2R)-1,1,1-trifluoropropan-2-yl]-4H,5H,6H,7H-pyrazolo[1,5-a]pyrazine-3-carboxamide], in that order: less than 1 µM, greater than 10 µM and less than 5 µM.
For `Cc1cc(F)cc2[nH]c(C(=O)N3CCn4ncc(C(=O)N5CCC(O)CC56CC6)c4C3)cc12` (stereo not drawn) [Example 121, 4-[5-(6-fluoro-4-methyl-1H-indole-2-carbonyl)-4H,5H,6H,7H-pyrazolo[1,5-a]pyrazine-3-carbonyl]-4-azaspiro[2.5]octan-7-ol], in that order: less than 1 µM, greater than 10 µM and less than 5 µM.
In the case of `CN(C(=O)c1cnn2c1CN(C(=O)c1cc3ccccc3[nH]1)CC2)C1(c2ncccn2)CC1` [Example 47, 5-(1H-indole-2-carbonyl)-N-methyl-N-[1-(pyrimidin-2-yl)cyclopropyl]-4H,5H,6H,7H-pyrazolo[1,5-a]pyrazine-3-carboxamide], the EC50 with HBV was less than 1 µM. In data set [1], this compound had a CC50 at 6 days greater than 10 µM. Moreover, the IC50 in data set [2] was less than 5 µM.
Regarding `CN(CCOC(F)F)C(=O)c1cnn2c1CN(C(=O)c1cc3ccccc3[nH]1)CC2` [Example 62, N-[2-(difluoromethoxy)ethyl]-5-(1H-indole-2-carbonyl)-N-methyl-4H,5H,6H,7H-pyrazolo[1,5-a]pyrazine-3-carboxamide], in the data set with HBV (printed as number instead of class symbol), the EC50 is greater than 10 µM. Moreover, the CC50 at 6 days in data set [1] is greater than 10 µM. For the same compound, in data set [2], the IC50 is less than 5 µM.
`O=C(NC1(COC(F)F)CC1)c1cnn2c1CN(C(=O)c1cc3cc(F)c(F)cc3[nH]1)CC2` [Example 139, 5-(5,6-difluoro-1H-indole-2-carbonyl)-N-{1-[(difluoromethoxy)methyl]cyclopropyl}-4H,5H,6H,7H-pyrazolo[1,5-a]pyrazine-3-carboxamide]: the EC50 with HBV is less than 1 µM. This compound yielded a CC50 at 6 days in data set [1] greater than 10 µM. Further, the IC50 in data set [2] was less than 5 µM.
For `O=C(c1cc2ccccc2[nH]1)N1CCn2ncc(C3CCCO3)c2C1` (stereo not drawn) [Example 73, 2-[3-(oxolan-2-yl)-4H,5H,6H,7H-pyrazolo[1,5-a]pyrazine-5-carbonyl]-1H-indole], in that order: less than 1 µM, greater than 10 µM and less than 5 µM.
As to `CN(C)S(=O)(=O)c1cnn2c1CN(C(=O)c1cc3ccccc3[nH]1)CC2` [Example 40, 5-(1H-indole-2-carbonyl)-N,N-dimethyl-4H,5H,6H,7H-pyrazolo[1,5-a]pyrazine-3-sulfonamide], in the data set with HBV, the EC50 was less than 1 µM. Further, the CC50 at 6 days in data set [1] was greater than 10 µM. Besides, the IC50 in data set [2] was less than 5 µM.
As to `O=C(c1cc2ccccc2[nH]1)N1CCn2ncc(S(=O)(=O)NCC3CCOC3)c2C1` (stereo not drawn) [Example 33, 5-(1H-indole-2-carbonyl)-N-[(oxolan-3-yl)methyl]-4H,5H,6H,7H-pyrazolo[1,5-a]pyrazine-3-sulfonamide], in the data set on HBV, the EC50 lay in the range of 1 to 10 µM. The same compound gave a CC50 at 6 days in data set [1] greater than 10 µM. In data set [2], the IC50 lay within 5 to 10 µM.
For `CN(C(=O)c1cnn2c1CN(C(=O)c1cc3ccccc3[nH]1)CC2)C1(COC(F)F)CC1` [Example 16, N-{1-[(difluoromethoxy)methyl]cyclopropyl}-5-(1H-indole-2-carbonyl)-N-methyl-4H,5H,6H,7H-pyrazolo[1,5-a]pyrazine-3-carboxamide], in that order: less than 1 µM, greater than 10 µM and less than 5 µM.
For `C[C@@H](NC(=O)c1cnn2c1CN(C(=O)c1cc3cc(Cl)c(F)cc3[nH]1)CC2)C(F)(F)F` [Example 116, 5-(5-chloro-6-fluoro-1H-indole-2-carbonyl)-N-[(2R)-1,1,1-trifluoropropan-2-yl]-4H,5H,6H,7H-pyrazolo[1,5-a]pyrazine-3-carboxamide], in that order: less than 1 µM, greater than 10 µM and less than 5 µM.
Turning to `O=C(NC1COC1)c1cnn2c1CN(C(=O)c1cc3ccccc3[nH]1)CC2` [Example 134, 5-(1H-indole-2-carbonyl)-N-(oxetan-3-yl)-4H,5H,6H,7H-pyrazolo[1,5-a]pyrazine-3-carboxamide], the EC50 in the data set with HBV lay within 1 to 10 µM. In addition, the CC50 at 6 days in data set [1] was greater than 10 µM. The IC50 in data set [2] was less than 5 µM.
For `CN(Cc1ccccc1)C(=O)c1cnn2c1CN(C(=O)c1cc3ccccc3[nH]1)CC2` [Example 63, N-benzyl-5-(1H-indole-2-carbonyl)-N-methyl-4H,5H,6H,7H-pyrazolo[1,5-a]pyrazine-3-carboxamide], in that order: less than 1 µM, greater than 10 µM and less than 5 µM.
Turning to `O=C(c1cc2c(F)cc(F)cc2[nH]1)N1CCn2ncc(C3CCC3)c2C1` [Example 5, 2-{3-cyclobutyl-4H,5H,6H,7H-pyrazolo[1,5-a]pyrazine-5-carbonyl}-4,6-difluoro-1H-indole], the EC50 in the data set on HBV was less than 1 µM. Besides, the CC50 at 6 days in data set [1] is greater than 10 µM. The IC50 in data set [2] was less than 5 µM.
Take `CN(C(=O)c1cnn2c1CN(C(=O)c1cc3ccccc3[nH]1)CC2)C1(CCOC(F)F)CCCC1` [Example 127, N-{1-[2-(difluoromethoxy)ethyl]cyclopentyl}-5-(1H-indole-2-carbonyl)-N-methyl-4H,5H,6H,7H-pyrazolo[1,5-a]pyrazine-3-carboxamide]: in the data set on HBV, the EC50 fell in the range of 1 to 10 µM. Also, the CC50 at 6 days in data set [1] was greater than 10 µM. For the same compound, the IC50 in data set [2] is less than 5 µM.
On to `CN(C(=O)c1cnn2c1CN(C(=O)c1cc3c(F)c(F)ccc3[nH]1)CC2)C1(COC(F)F)CC1` [Example 21, 5-(4,5-difluoro-1H-indole-2-carbonyl)-N-{1-[(difluoromethoxy)methyl]cyclopropyl}-N-methyl-4H,5H,6H,7H-pyrazolo[1,5-a]pyrazine-3-carboxamide], for which the EC50 in the data set with HBV was less than 1 µM. This compound also had a CC50 at 6 days in data set [1] greater than 10 µM. Also, in data set [2], the IC50 is less than 5 µM.
